Read-outs that look alike come from different tables or passages of the source.
Key:
[1] = target: smooth muscle angiotensin II receptor; assay: Assay A: Angiotensin II Binding Activity (displacement of 125I-AII, rat uterine membrane preparation); conditions: rat uterine membranes, 25 °C, 60 min; read-out: IC50 (50% displacement of total specifically bound 125I-AII)
Experimental: Assay A: Anaiotensin II Binding Activity
Compounds of the invention were tested for ability to bind to the smooth muscle angiotensin II receptor using a rat uterine membrane preparation. Angiotensin II (AII) was purchased from Peninsula Labs. ^125 I-angiotensin II (specific activity of 2200 Ci/mmol) was purchased from Du Pont-New England Nuclear. Other chemicals were obtained from Sigma Chemical Co. This assay was carried out according to the method of Douglas et al [Endocrinology, 106, 120-124 (1980)]. Rat uterine membranes were prepared from fresh tissue. All procedures were carried out at 4° C. Uteri were stripped of fat and homogenized in phosphate-buffered saline at pH 7.4 containing 5 mM EDTA. The homogenate was centrifuged at 1500×g for 20 min., and the supernatant was recentrifuged at 100,000×g for 60 min. The pellet was resuspended in buffer consisting of 2 mM EDTA and 50 mM Tris-HCl (pH 7.5) to a final protein concentration of 4 mg/ml. Assay tubes were charged with 0.25 ml of a solution containing 5 mM MgCl2, 2 mM EDTA, 0.5% bovine serum albumin, 50 mM Tris-HCl, pH 7.5 and ^125 I-AII (approximately 10^5 cpm) in the absence or in the presence of unlabelled ligand. The reaction was initiated by the addition of membrane protein and the mixture was incubated at 25° C. for 60 min. The incubation was terminated with ice-cold 50 mM Tris-HDl (pH 7.5) and the mixture was filtered to separate membrane-bound labelled peptide from the free ligand. The incubation tube and filter were washed with ice-cold buffer. Filters were assayed for radioactivity in a Micromedic gamma counter. Nonspecific binding was defined as binding in the presence of 10 μM of unlabelled AII. Specific binding was calculated as total binding minus nonspecific binding. The receptor binding affinity of an AII antagonist compound was indicated by the concentration (IC50) of the tested AII antagonist which gives 50% displacement of the total specifically bound ^125 I-AII from the high affinity AII receptor. Binding data were analyzed by a nonlinear least-squares curve fitting program.

rabbit aortic rings = target: T1, rabbit aortic rings (Oryctolagus cuniculus, UniProt P34976); assay: Assay B: In Vitro Vascular Smooth Muscle-Response for AII (antagonist activity in rabbit aortic rings); type: cell-based, rabbit (male New Zealand white); conditions: antagonist 10^-5 M for 5 min, AII challenge
T1 construct: The thoracic aorta was removed, cleaned of adherent fat and connective tissue; from tissue; host or cells: thoracic aorta rings, endothelium removed, male New Zealand white rabbit
T1 sequence (P34976 1-359): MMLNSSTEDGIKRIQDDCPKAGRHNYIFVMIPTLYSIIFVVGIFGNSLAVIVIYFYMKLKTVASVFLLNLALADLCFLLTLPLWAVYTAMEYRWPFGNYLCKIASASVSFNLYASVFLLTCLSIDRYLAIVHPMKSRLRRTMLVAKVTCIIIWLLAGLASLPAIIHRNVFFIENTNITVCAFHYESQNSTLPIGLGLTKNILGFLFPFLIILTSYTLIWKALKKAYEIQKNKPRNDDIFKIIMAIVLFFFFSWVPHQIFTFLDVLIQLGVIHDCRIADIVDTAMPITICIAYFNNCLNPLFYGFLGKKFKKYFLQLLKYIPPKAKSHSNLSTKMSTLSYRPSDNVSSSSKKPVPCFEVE
Experimental: Assay B: In Vitro Vascular Smooth Muscle-Response for AII The compounds of the invention were tested for antagonist activity in rabbit aortic rings. Male New Zealand white rabbits (2-2.5 kg) were sacrificed using an overdose of pentobarbital and exsanguinated via the carotid arteries. The thoracic aorta was removed, cleaned of adherent fat and connective tissue and then cut into 3-mm ring segments. The endothelium was removed from the rings by gently sliding a rolled-up piece of filter paper into the vessel lumen. The rings were then mounted in a water-jacketed tissue bath, maintained at 37° C., between moveable and fixed ends of a stainless steel wire with the moveable end attached to an FT03 Grass transducer coupled to a Model 7D Grass Polygraph for recording isometric force responses. The bath was filled with 20 ml of oxygenated (95% oxygen/5% carbon dioxide) Krebs solution of the following composition (mM): 130 NaCl, 15 NaHCO3, 15 KCl, 1.2 NaH2 PO4, 1.2 MgSO4, 2.5 CaCl2, and 11.4 glucose. The preparations were equilibrated for one hour before approximately one gram of passive tension was placed on the rings. Angiotensin II concentration-response curves were then recorded (3×10^-10 to 1×10^-5 M). Each concentration of AII was allowed to elicit its maximal contraction, and then AII was washed out repeatedly for 30 minutes before rechallenging with a higher concentration of AII. Aorta rings were exposed to the test antagonist at 10^-5 M for 5 minutes before challenging with AII. Adjacent segments of the same aorta ring were used for all concentration-response curves in the presence or absence of the test antagonist. The effectiveness of the test compound was expressed in terms of pA2 values and were calculated according to H.O. Schild [Br. J. Pharmacol. Chemother., 2, 189-206 (1947)]. The pA2 value is the concentration of the antagonist which increases the EC50 value for AII by a factor of two. Each test antagonist was evaluated in aorta rings from two rabbits.

[2] = first of two rabbits, read-out: pA2 (first value) (converted)
[3] = second of two rabbits, read-out: pA2 (converted)

| IC50 [1] [nM] | Kb (rabbit aortic rings; [2]) [nM] | Kb (rabbit aortic rings; [3]) [nM] | Compound |
| --- | --- | --- | --- |
| 120 | – | – | CCCCc1nc(CCCC)n(Cc2ccc(-c3ccccc3C(=O)O)nc2)n1 [Example 2, 2-[5-[(3,5-dibutyl-1H-1,2,4-triazol-1-yl)methyl]-2-pyridinyl]benzoic acid] |
| 110 | 77.6 | 251 | CCCCc1nc(CCCC)n(Cc2ccc(-c3cccnc3-c3nnn[nH]3)cc2)n1 [Example 4, 5-[3-[4-[(3,5-dibutyl-1H-1,2,4-triazol-1-yl)methyl]phenyl]-2-pyridinyl]-1H-tetrazole] |
| 250 | – | – | CCCCc1nc(CCCC)n(Cc2ccc(-c3ccncc3-c3nnn[nH]3)cc2)n1 [Example 5, 5-[4-[4-[(3,5-dibutyl-1H-1,2,4-triazol-1-yl)methyl]phenyl]-3-pyridinyl]-1H-tetrazole] |
| 150 | 67.6 | 67.6 | CCCCc1nc(CCCC)n(Cc2ccc(-c3cnccc3-c3nnn[nH]3)cc2)n1 [Example 6, 5-[3-[4-[(3,5-dibutyl-1H-1,2,4-triazol-1-yl)methyl]phenyl]-4-pyridinyl]-1H-tetrazole] |
| 98 | 229 | 91.2 | CCCCc1nc(CCCC)n(Cc2ccc(-c3ncccc3-c3nnn[nH]3)cc2)n1 [Example 7, 5-[2-[4-[(3,5-dibutyl-1H-1,2,4-triazol-1-yl)methyl]phenyl]-3-pyridinyl]-1H-tetrazole] |
| 72 | 34.7 | 25.7 | CCCc1nc(CCC)n(Cc2ccc(-c3ccccc3-c3nnn[nH]3)nc2)n1 [Example 8, 5-[2-[5-[(3,5-dipropyl-1H-1,2,4triazol-1-yl)methyl]-2-pyridinyl]phenyl]-1H-tetrazole] |
| 25 | – | – | CCCCc1nc(CC(CC)CC)nn1Cc1ccc(-c2ccccc2-c2nnn[nH]2)nc1 [Example 13, 5-[2-[5-[[3-(2-ethylbutyl)-5-butyl-1H-1,2,4-triazol-1-yl)methyl]-2-pyridinyl]phenyl]-1H-tetrazole] |
| 13 | – | – | CCCCc1nc(CC(CC)CC)n(Cc2ccc(-c3ccccc3-c3nnn[nH]3)nc2)n1 [Example 14, 5-[2-[5-[[3-butyl-5-(2-ethylbutyl)-1H-1,2,4-triazol-1-yl)methyl]-2-pyridinyl]phenyl]-1H-tetrazole] |
| 2.6 | – | – | CCCCc1nc(CCc2ccccc2)nn1Cc1ccc(-c2ccccc2-c2nnn[nH]2)nc1 [Example 15, 5-[2-[5-[[3-(2-phenylethyl)-5-butyl-1H-1,2,4-triazol-1-yl)methyl]-2-pyridinyl]phenyl]-1H-tetrazole] |
| 72 | – | – | CCCCc1nc(CCc2ccccc2)n(Cc2ccc(-c3ccccc3-c3nnn[nH]3)nc2)n1 [Example 16, 5-[2-[5-[[3-butyl-5-(2-phenylethyl)-1H-1,2,4-triazol-1-yl)methyl]-2-pyridinyl]phenyl]-1H-tetrazole] |
| 160 | 234 | 209 | CCCCc1nc(C(=O)NC)nn1Cc1ccc(-c2ccccc2-c2nnn[nH]2)nc1 [Example 19, 5-[2-[5-[[3-(N-methylamido)-5-butyl-1H-1,2,4-triazol-1-yl)methyl]-2-pyridinyl]phenyl]-1H-tetrazole] |
| 350 | 145 | 145 | CCCCc1nc(C(=O)NC)n(Cc2ccc(-c3ccccc3-c3nnn[nH]3)nc2)n1 [Example 20, 5-[2-[5-[[3-butyl-5-(N-methylamido)-1H-1,2,4-triazol-1-yl)methyl]-2-pyridinyl]phenyl]-1H-tetrazole] |
| 54 | – | – | CCCCc1nc(-c2ccccc2)nn1Cc1ccc(-c2ccccc2-c2nnn[nH]2)nc1 [Example 21, 5-[2-[5-[(3-phenyl-5-butyl-1H-1,2,4-triazol-1-yl)methyl]-2-pyridinyl]phenyl]-1H-tetrazole] |
| 220 | – | – | CCCCc1nc(-c2ccccc2)n(Cc2ccc(-c3ccccc3-c3nnn[nH]3)nc2)n1 [Example 22, 5-[2-[5-[(3-butyl-5-phenyl-1H-1,2,4-triazol-1-yl)methyl]-2-pyridinyl]phenyl]-1H-tetrazole] |
| 18 | – | – | CCCCc1nc(-c2ccccc2C)nn1Cc1ccc(-c2ccccc2-c2nnn[nH]2)nc1 [Example 23, 5-[2-[5-[[3-(2-methylphenyl)-5-butyl-1H-1,2,4-triazol-1-yl)methyl]-2-pyridinyl]phenyl]-1H-tetrazole] |
| 530 | – | 603 | CCCCc1nc(-c2ccccc2C)n(Cc2ccc(-c3ccccc3-c3nnn[nH]3)nc2)n1 [Example 24, 5-[2-[5-[[3-butyl-5-(2-methylphenyl)-1H-1,2,4-triazol-1-yl)methyl]-2-pyridinyl]phenyl]-1H-tetrazole] |
| 57 | – | – | CCCCc1nc(-c2ccccc2C(C)C)nn1Cc1ccc(-c2ccccc2-c2nnn[nH]2)nc1 [Example 25, 5-[2-[5-[[3-(2-isopropylphenyl)-5-butyl-1H-1,2,4-triazol-1-yl)methyl]-2-pyridinyl]phenyl]-1H-tetrazole] |
| 11 | – | – | CCCCc1nc(-c2ccccc2C(C)C)n(Cc2ccc(-c3ccccc3-c3nnn[nH]3)nc2)n1 [Example 26, 5-[2-[5-[[3-butyl-5-(2-isopropylphenyl)-1H-1,2,4-triazol-1-yl)methyl]-2-pyridinyl]phenyl]-1H-tetrazole] |
| 110 | – | – | CCCCc1nc(-c2ccccc2OC)nn1Cc1ccc(-c2ccccc2-c2nnn[nH]2)nc1 [Example 27, 5-[2-[5-[[3-(2-methoxyphenyl)-5-butyl-1H-1,2,4-triazol-1-yl)methyl]-2-pyridinyl]phenyl]-1H-tetrazole] |
| 290 | – | – | CCCCc1nc(-c2ccccc2OC)n(Cc2ccc(-c3ccccc3-c3nnn[nH]3)nc2)n1 [Example 28, 5-[2-[5-[[3-butyl-5-(2-methoxyphenyl)-1H-1,2,4-triazol-1-yl)methyl]-2-pyridinyl]phenyl]-1H-tetrazole] |
| 9.7 | – | – | CCCCc1nc(-c2c(F)cccc2F)nn1Cc1ccc(-c2ccccc2-c2nnn[nH]2)nc1 [Example 31, 5-[2-[5-[[3-(2,6-difluorophenyl)-5-butyl-1H-1,2,4-triazol-1-yl)methyl]-2-pyridinyl]phenyl]-1H-tetrazole] |
| 21 | – | – | CCCCc1nc(-c2c(F)cccc2F)n(Cc2ccc(-c3ccccc3-c3nnn[nH]3)nc2)n1 [Example 32, 5-[2-[5-[[3-butyl-5-(2,6-difluorophenyl)-1H-1,2,4-triazol-1-yl)methyl]-2-pyridinyl]phenyl]-1H-tetrazole] |

Reference: US5602153A, “Method of using 1-arylheteroarylalkyl substituted-1H-1,2,4-triazole compounds for treatment of a giaucoma disorder” (G.D. Searle & Co., priority 1993, dated 1997)
